Results published in patent US20260250301A1, “KRAS G12D INHIBITORS AND USES THEREOF” (SUZHOU ZANRONG PHARMA LIMITED, priority 2023, published 2026).
pIC50: −log10 of the molar value.

These molecules were tested on PANC-1 pERK (assay: Phospho-ERK 1/2 assay). Settings: Homo sapiens, PANC-1, 3 h, PANC-1 cells, compound incubation 3 hours, pERK normalised with GAPDH antibody staining.
Type: cell-based
Experimental: Allow PNAC-1 cell growth in a T75 flask in DMEM and 10% 1 fetal calf serum (FCS; Gibco®), using standard tissue culture procedures until ~80% confluency is achieved. Day 1, seed 6000 cells/well in 384 well plate and incubate at 37° C., 5% CO2. Add diluted compound by Echo 550, final DMSO is 0.5%, incubate cells at 37° C., 5% CO2 for 3 hours. Then, remove medium and fix cells with 3.7% formaldehyde in PBS (PFA) by Apricot. Wash with PBS once. Permeabilize cells with cold 100% methanol and repeat wash once with PBS once. Add Li-Cor blocking buffer to each well and incubate 1.5 hours at RT. Remove blocking buffer and add primary antibody mixture (rabbit anti pERK, mouse anti GAPDH). Incubate at 4° C. overnight. Day 2, wash with PBST (Tween-20 in PBS) with total 3 times and then add secondary antibody mixture (goat anti rabbit 800CW (1:800 dilution in the combined solution) and goat anti mouse 680RD (1:800 dilution in the combined solution)), incubate for 60 minutes at RT away from light. Repeat washing with PBST 3 times. After final wash, centrifuge plate up-side-down at 1000 rpm to remove wash solution completely from wells. Before plate scanning, clean the bottom plate surface and the Odyssey© Imager scanning bed (if applicable) with moist, lint-free tissue to avoid any obstructions during scanning. Scan plate with detection in both 700 and 800 nm channels.

Compound | pIC50
C=C1CN2CCC[C@@]2(Cn2c(=O)nc3c4c(nc(-c5cc(O)cc6ccc(F)c(CC)c56)c(F)c42)OC[C@@H]2[C@@H]4CC[C@H](CN32)N4)C1 (single isomer, unassigned) [Example 46a] | 8.23
C=C1CN2CCC[C@]2(Cn2c(=O)nc3c4c(nc(-c5cc(O)cc6ccc(F)c(CC)c56)c(F)c42)OC[C@@H]2[C@@H]4CC[C@H](CN32)N4)C1 (single isomer, unassigned) [Example 46b] | 7.55
C#Cc1c(F)ccc2cccc(-c3nc4c5c(nc(=O)n(C[C@]67CCCN6CC(=C)C7)c5c3F)N3C[C@H]5CC[C@H](N5)[C@H]3[C@H](C)O4)c12 (single isomer, unassigned) [Example 200b] | 6.16
C#Cc1c(F)ccc2cccc(-c3nc4c5c(nc(=O)n(C[C@]67CC(=C)CN6C[C@@H](F)C7)c5c3F)N3C[C@H]5CC[C@H](N5)[C@H]3[C@H](C)O4)c12 (single isomer, unassigned) [Example 202b] | 6.00
CCc1c(F)ccc2cc(O)cc(-c3nc4c5c(nc(=O)n(C[C@@]67CCCN6C[C@H](F)C7)c5c3F)N3C[C@@](C)(O)CCC3CO4)c12 (single isomer, unassigned) [Example 350a1] | 6.82
CCc1c(F)ccc2cc(O)cc(-c3nc4c5c(nc(=O)n(C(C)[C@H]6CCN6C)c5c3F)N3C[C@H]5CC[C@H](N5)[C@H]3[C@H](C)O4)c12 (single isomer, unassigned) [Example 376a] | 6.84
C#Cc1c(F)ccc2cccc(-c3nc4c5c(nc(=O)n(C[C@@]67CCCN6C[C@H](F)C7)c5c3F)N3C[C@H]5CC[C@H](N5)[C@H]3CO4)c12 [Example 1, (5aS,6S,9R)-2-(8-ethynyl-7-fluoronaphthalen-1-yl)-1-fluoro-13-(((2R,7aS)-2-fluorotetrahydro-1H-pyrrolizin-7a(5H)-yl)methyl)-5a,6,7,8,9,10-hexahydro-5H-4-oxa-3,10a,11,13,14-pentaaza-6,9-methanonaphtho[1,8-ab]heptalen-12(13H)-one] | 6.41
C#Cc1c(F)ccc2cccc(-c3nc4c5c(nc(=O)n(CC67CCCN6CC(=C)C7)c5c3F)N3C[C@H]5CC[C@H](N5)[C@H]3CO4)c12 (stereo partly drawn) [Example 2] | 7.82
C#Cc1c(F)ccc2cc(O)cc(-c3nc4c5c(nc(=O)n(CC67CCCN6CC(=C)C7)c5c3F)N3C[C@H]5CC[C@H](N5)[C@H]3CO4)c12 (stereo partly drawn) [Example 24] | 7.07
CCc1c(F)ccc2cc(O)cc(-c3nc4c5c(nc(=O)n(C[C@@]67CCCN6C[C@H](F)C7)c5c3F)N3C[C@H]5CC[C@H](N5)[C@H]3CO4)c12 [Example 45, (8aS,9S,12R)-5-(8-ethyl-7-fluoro-3-hydroxynaphthalen-1-yl)-4-fluoro-3-(((2R,7aS)-2-fluorotetrahydro-1H-pyrrolizin-7a(5H)-yl)methyl)-8a,9,10,11,12,13-hexahydro-8H-7-oxa-1,3,6,13a,14-pentaaza-9,12-methanonaphtho[1,8-ab]heptalen-2(3H)-one] | 7.64
C=C1CN2CC(=C)CC2(Cn2c(=O)nc3c4c(nc(-c5cc(O)cc6ccc(F)c(CC)c56)c(F)c42)OC[C@@H]2[C@@H]4CC[C@H](CN32)N4)C1 [Example 47] | 6.20
C#Cc1c(F)ccc2cccc(-c3nc4c5c(nc(=O)n(C[C@@]67CCCN6C[C@H](F)C7)c5c3F)N3C[C@H]5CC[C@H](N5)[C@H]3[C@H](C)O4)c12 [Example 199, (5S,5aS,6S,9R)-2-(8-ethynyl-7-fluoronaphthalen-1-yl)-1-fluoro-13-(((2R,7aS)-2-fluorotetrahydro-1H-pyrrolizin-7a(5H)-yl)methyl)-5-methyl-5a,6,7,8,9,10-hexahydro-5H-4-oxa-3,10a,11,13,14-pentaaza-6,9-methanonaphtho[1,8-ab]heptalen-12(13H)-one] | 7.43
C#Cc1c(F)ccc2cc(O)cc(-c3nc4c5c(nc(=O)n(CC67CCCN6CC(=C)C7)c5c3F)N3C[C@H]5CC[C@H](N5)[C@H]3[C@H](C)O4)c12 (stereo partly drawn) [Example 222] | 6.95
CCc1c(F)ccc2cc(O)cc(-c3nc4c5c(nc(=O)n(C[C@@]67CCCN6C[C@H](F)C7)c5c3F)N3C[C@H]5CC[C@H](N5)[C@H]3[C@H](C)O4)c12 [Example 227] | 8.28
C=C1CN2CCCC2(Cn2c(=O)nc3c4c(nc(-c5cc(O)cc6ccc(F)c(CC)c56)c(F)c42)O[C@@H](C)[C@@H]2[C@@H]4CC[C@H](CN32)N4)C1 (stereo partly drawn) [Example 228] | 7.72
C#Cc1c(F)ccc2cc(O)cc(-c3nc4c5c(cc(=O)n(C[C@@]67CCCN6CC(=C)C7)c5c3F)N3C[C@H]5CC[C@H](N5)[C@H]3[C@H](C)O4)c12 [Example 330, (5S,5aS,6S,9R)-2-(8-ethynyl-7-fluoro-3-hydroxynaphthalen-1-yl)-1-fluoro-5-methyl-14-(((S)-2-methylenetetrahydro-1H-pyrrolizin-7a(5H)-yl)methyl)-5a,6,7,8,9,10-hexahydro-5H-6,9-epiminoazepino[2′,1′:3,4][1,4] oxazepino[5,6,7-de][1,6]naphthyridin-13(14H)-one] | 6.77

Same assay, conditions: Homo sapiens; PANC-1 cells, compound incubation 3 hours, pERK normalised with GAPDH antibody staining

Compound | pIC50
C#Cc1c(F)ccc2cc(O)cc(-c3nc4c5c(nc(=O)n(C[C@@]67CCCN6C[C@H](F)C7)c5c3F)N3C[C@H]5CC[C@H](N5)[C@H]3CO4)c12 [Example 23, (5aS,6S,9R)-2-(8-ethynyl-7-fluoro-3-hydroxynaphthalen-1-yl)-1-fluoro-13-(((2R,7aS)-2-fluorotetrahydro-1H-pyrrolizin-7a(5H)-yl)methyl)-5a,6,7,8,9,10-hexahydro-5H-4-oxa-3,10a,11,13,14-pentaaza-6,9-methanonaphtho[1,8-ab]heptalen-12(13H)-one] | 7.02

Same assay, conditions: PANC-1 cells, compound incubation 3 hours, pERK normalised with GAPDH antibody staining

Compound | pIC50
C#Cc1c(F)ccc2cccc(-c3nc4c5c(nc(=O)n(CC(C)(CO)N(C)C)c5c3F)N3C[C@H]5CC[C@H](N5)[C@H]3[C@H](C)O4)c12 (single isomer, unassigned) [Example 365b] | 6.96
C#Cc1c(F)ccc2cccc(-c3nc4c5c(nc(=O)n(C6C7CC6CN(C)C7)c5c3F)N3C[C@H]5CC[C@H](N5)[C@H]3[C@H](C)O4)c12 (single isomer, unassigned) [Example 371a] | 6.52
C#Cc1c(F)ccc2cccc(-c3nc4c5c(nc(=O)n(C6C7CC6CN(C)C7)c5c3F)N3C[C@H]5CC[C@H](N5)[C@H]3[C@H](C)O4)c12 (single isomer, unassigned) [Example 371b] | 6.10
C#Cc1c(F)ccc2cccc(-c3nc4c5c(nc(=O)n(C(C)[C@H]6CCN6C)c5c3F)N3C[C@H]5CC[C@H](N5)[C@H]3[C@H](C)O4)c12 (single isomer, unassigned) [Example 372a] | 6.41
C#Cc1c(F)ccc2cccc(-c3nc4c5c(nc(=O)n(C(C)[C@H]6CCN6C)c5c3F)N3C[C@H]5CC[C@H](N5)[C@H]3[C@H](C)O4)c12 (single isomer, unassigned) [Example 372b] | 7.15
CCc1c(F)ccc2cc(O)cc(-c3nc4c5c(nc(=O)n(CC(C)(CO)N(C)C)c5c3F)N3C[C@H]5CC[C@H](N5)[C@H]3[C@H](C)O4)c12 (single isomer, unassigned) [Example 373b] | 6.86
CCc1c(F)ccc2cc(O)cc(-c3nc4c5c(nc(=O)n(C(C)[C@H]6CCN6C)c5c3F)N3C[C@H]5CC[C@H](N5)[C@H]3[C@H](C)O4)c12 (single isomer, unassigned) [Example 376b] | 6.88
